ChEMBL document CHEMBL1136402, “Characterization of HERG potassium channel inhibition using CoMSiA 3D QSAR and homology modeling approaches” (Bioorg Med Chem Lett, 2003)

Target: Voltage-gated inwardly rectifying potassium channel KCNH2 (Homo sapiens, UniProt Q12809)
Test: Inhibition of K+ channel activity in CHO cells expressing HERG Kv11.1

Sequence of Voltage-gated inwardly rectifying potassium channel KCNH2 (Q12809 whole entry): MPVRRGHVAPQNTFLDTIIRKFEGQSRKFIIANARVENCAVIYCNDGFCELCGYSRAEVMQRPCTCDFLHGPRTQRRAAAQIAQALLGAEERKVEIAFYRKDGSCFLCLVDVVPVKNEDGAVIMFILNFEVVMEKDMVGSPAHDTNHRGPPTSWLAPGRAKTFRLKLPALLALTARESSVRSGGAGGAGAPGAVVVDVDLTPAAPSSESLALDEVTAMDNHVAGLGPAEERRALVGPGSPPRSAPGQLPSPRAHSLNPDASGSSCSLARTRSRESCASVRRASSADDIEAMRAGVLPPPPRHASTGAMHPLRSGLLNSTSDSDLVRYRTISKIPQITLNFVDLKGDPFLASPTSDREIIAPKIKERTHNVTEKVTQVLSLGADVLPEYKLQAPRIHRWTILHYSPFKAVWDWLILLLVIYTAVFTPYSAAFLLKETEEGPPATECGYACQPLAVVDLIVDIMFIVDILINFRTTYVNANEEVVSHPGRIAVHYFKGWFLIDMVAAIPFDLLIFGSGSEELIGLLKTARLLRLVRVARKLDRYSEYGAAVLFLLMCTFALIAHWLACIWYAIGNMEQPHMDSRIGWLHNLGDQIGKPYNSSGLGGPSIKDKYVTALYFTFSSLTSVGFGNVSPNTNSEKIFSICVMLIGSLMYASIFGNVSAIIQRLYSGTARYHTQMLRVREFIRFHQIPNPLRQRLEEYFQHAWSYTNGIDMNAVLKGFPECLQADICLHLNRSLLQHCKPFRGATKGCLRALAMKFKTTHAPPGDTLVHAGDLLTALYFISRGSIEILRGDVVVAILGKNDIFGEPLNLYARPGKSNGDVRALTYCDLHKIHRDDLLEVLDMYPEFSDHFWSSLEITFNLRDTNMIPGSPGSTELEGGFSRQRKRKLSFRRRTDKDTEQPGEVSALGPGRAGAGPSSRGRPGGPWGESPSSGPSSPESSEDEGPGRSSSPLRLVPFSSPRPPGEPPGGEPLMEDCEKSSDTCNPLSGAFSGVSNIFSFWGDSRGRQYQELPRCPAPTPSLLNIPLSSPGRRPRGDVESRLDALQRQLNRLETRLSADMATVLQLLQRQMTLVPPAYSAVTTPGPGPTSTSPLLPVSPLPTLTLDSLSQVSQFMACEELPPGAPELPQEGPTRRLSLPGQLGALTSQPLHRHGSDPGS

SMILES | IC50
O=C1NCCN1CCN1CC=C(c2cn(-c3ccc(F)cc3)c3ccc(Cl)cc23)CC1 | 0.01 µM
O=C1NCCN1CCN1CCC(c2cn(-c3ccc(F)cc3)c3ccccc23)CC1 | 0.007 µM
Fc1ccc(-n2cc(C3CCNCC3)c3cc(Cl)ccc32)cc1 | 0.204 µM
Fc1ccc(-n2cc(C3CCN(CCN4CCN=C4S)CC3)c3ccccc32)cc1 | 0.0062 µM
CC(C)(C)c1ccc2c(ccn2-c2ccc(F)cc2)c1 | > 10 µM
CCc1cn(-c2ccc(F)cc2)c2ccc(Cl)cc12 | 3.5 µM
CC(=O)c1cn(-c2ccc(F)cc2)c2ccc(Cl)cc12 | > 10 µM
CCCc1cn(-c2ccc(F)cc2)c2ccc(Cl)cc12 | 26 µM
CC(O)c1cn(-c2ccc(F)cc2)c2ccc(Cl)cc12 (stereo not given) | 4.55 µM
CC(C)c1cn(-c2ccc(F)cc2)c2ccc(Cl)cc12 | > 10 µM
CCC(=O)c1cn(-c2ccc(F)cc2)c2ccc(Cl)cc12 | 1.95 µM
O=C1NCCN1CCN1CCC(c2cn(C3CCCCC3)c3ccc(Cl)cc23)CC1 | 0.137 µM
CCC(O)c1cn(-c2ccc(F)cc2)c2ccc(Cl)cc12 (stereo not given) | 2.2 µM
CCC(O)(CC)c1cn(-c2ccc(F)cc2)c2ccc(Cl)cc12 | 15.7 µM
O=C1NCCN1CCN1CCC(C2CN(c3ccc(F)cc3)c3ccccc32)CC1 (stereo not given) | 0.0235 µM
